# Data from paper PMC6792352, “Limited Chemical Structural Diversity Found to Modulate Thyroid Hormone Receptor in the Tox21 Chemical Library” (Environmental Health Perspectives, 2019).
# Where a name gives a salt, the structure may show the parent alone.
# Assay: in vitro
# Settings: rat, gh3-tre-luc cells, AC50 (uM) modified / 1000
row,SMILES,CC50 at 24 h
1,O=C(N[C@@H](c1ccccc1)[C@@H]1CCCCN1)c1cccc(C(F)(F)F)c1Cl [SSR504734],19.9 µM
2,CC(C)OC(=O)c1cc2c(OCC(O)CNC(C)(C)C)cccc2[nH]1 (stereo not drawn) [SDZ 21009],36.9 µM
3,OC1OC[C@@H](O)[C@H](O)[C@H]1O (stereo partly drawn) [D-Xylose],> 90 µM
4,"CC1=NC(C)OC1C (stereo not drawn) [2,4,5-Trimethyl-3-oxazoline]",> 90 µM
5,NC(CO)C(=O)NNCc1ccc(O)c(O)c1O (stereo not drawn) [Benserazide hydrochloride],> 50 µM
6,CC(C)CCCC(=O)O [5-Methylhexanoic acid],> 90 µM
7,"CCCC(=O)C(C)=O [2,3-Hexanedione]",> 90 µM
8,Cc1ccc2ncccc2c1 [6-Methylquinoline],> 90 µM
9,C=Cc1ccccc1 [Styrene],> 90 µM
10,"Cc1ccc(C)c([N+](=O)[O-])c1 [1,4-Dimethyl-2-nitrobenzene]",> 90 µM
11,O=C1CCCCCCCCCCCCCCO1 [Pentadecan-15-olide],> 90 µM
12,CC1(C)S[C@@H]2[C@H](NC(=O)C(C(=O)O)c3ccsc3)C(=O)N2[C@H]1C(=O)O (stereo partly drawn) [Ticarcillin disodium],> 50 µM
13,NS(=O)(=O)c1ccccc1Cl [2-Chlorobenzenesulfonamide],> 90 µM
14,"CC(=O)C(C)=O [2,3-Butanedione]",> 90 µM
15,CCCCCCCCCCCCCCCC(=O)OCCC1CCN(CCCN2c3ccccc3Sc3ccc(S(=O)(=O)N(C)C)cc32)CC1 [Pipothiazine palmitate],> 50 µM
16,CC(CCl)OP(=O)(OC(C)CCl)OC(C)CCl (stereo not drawn) [Tris(2-chloroisopropyl)phosphate],> 90 µM
17,CCC(O)c1ccccc1 (stereo not drawn) [1-Phenyl-1-propanol],> 50 µM
18,OCCN1CCOCC1 [4-(2-Hydroxyethyl)morpholine],> 90 µM
19,C[Si](C)(C)O[Si](C)(C)O[Si](C)(C)C [Octamethyltrisiloxane],> 90 µM
20,"ClCc1ccc(Cl)cc1Cl [2,4-Dichloro-1-(chloromethyl)benzene]",> 90 µM
21,NCCCC[C@H](N[C@@H](CCc1ccccc1)C(=O)O)C(=O)N1CCC[C@H]1C(=O)O [Lisinopril dihydrate],> 20 µM
22,CCCCCCC(O)CCCCCCCCCCC(=O)OC (stereo not drawn) [Methyl 12-hydroxyoctadecanoate],> 90 µM
23,CCC(=O)NCC[C@@H]1CCc2ccc3c(c21)CCO3 [Ramelteon],> 50 µM
24,CN(C1CCCCC1)C1CCCCC1 [N-Cyclohexyl-N-methylcyclohexanamine],> 90 µM
25,CCc1nccnc1C [3-Ethyl-2-methylpyrazine],> 90 µM
26,COc1cc(C[C@@H]2NCCc3cc(O)c(O)cc32)cc(OC)c1OC [Trimethoquinol],> 50 µM

row,SMILES,CC50 at 24 h
1,O=C(Nc1ccc(S(=O)(=O)N2CCOCC2)cc1)c1cc(Cl)ccc1NS(=O)(=O)c1ccc(Cl)s1 [Ataciguat],24 µM
2,CO[Si](CCCNc1ccccc1)(OC)OC [N-[3-(Trimethoxysilyl)propyl]aniline],> 90 µM
3,"O=C(O)Cc1ccc(Cl)cc1Cl [2,4-Dichlorophenylacetic acid]",> 90 µM
4,Cc1ccc(S(=O)(=O)NC(=O)NC2CCCC2)cc1 [Tolpentamide],> 50 µM
5,CCc1cccc(O)c1 [3-Ethylphenol],> 90 µM
6,Cc1nnc2n1-c1ccc(Cl)cc1C(c1ccccc1)=NC2 [Alprazolam],> 50 µM
7,CN1CC(O)C2=C/C(=N/NC(N)=O)C(=O)C=C21 (stereo not drawn) [Carbazochrome],> 50 µM
8,CC(=O)O[C@]1(C(C)=O)CC[C@H]2[C@@H]3CCC4=CC(=O)CC[C@]4(C)[C@@]3(F)[C@@H](O)C[C@@]21C [Flurogestone acetate],> 50 µM
9,NS(=O)(=O)c1cc2c(cc1Cl)NCNS2(=O)=O [Hydrochlorothiazide],> 90 µM
10,CC(=O)N(CC(C)C(=O)O)c1c(I)cc(I)c(N)c1I (stereo not drawn) [Iocetamic acid],> 20 µM
11,CC1(C)S[C@@H]2[C@H](NC(=O)Cc3ccccc3)C(=O)N2[C@H]1C(=O)O [Penicillin G potassium],> 50 µM
12,OC[C@@H](O)[C@H](O)[C@H](O)[C@@H](O)CO [D-Galactitol],> 50 µM
13,"CC(Cl)(Cl)Cl [1,1,1-Trichloroethane]",> 90 µM
14,CCCC[n+]1cccc(C)c1 [1-Butyl-3-methylpyridinium bromide],> 90 µM
15,C[C@@H](O)[C@@H]1NC(=O)[C@H](CCCCN)NC(=O)[C@@H](Cc2c[nH]c3ccccc23)NC(=O)[C@H](Cc2ccccc2)NC(=O)[C@@H](NC(=O)[C@H](N)Cc2ccccc2)CSSC[C@@H](C(=O)N[C@H](CO)[C@@H](C)O)NC1=O [Octreotide],> 50 µM
16,"N=C(N)c1ccccc1 [Benzenecarboximidamide, monohydrochloride]",> 90 µM
17,CCOC(=O)NNc1ccc(N(CC)CC(C)O)nn1 (stereo not drawn) [Cadralazine],> 50 µM
18,"CC(Oc1cc(Cl)c(Cl)cc1Cl)C(=O)O (stereo not drawn) [2-(2,4,5-Trichlorophenoxy)propionic acid]",> 90 µM
19,Cc1ccccc1S(N)(=O)=O [o-Toluenesulfonamide],> 90 µM
20,"CCOC(=O)CC(=O)c1cc(F)c(Cl)nc1Cl [Ethyl 2,6-dichloro-5-fluoro-?-oxo-3-pyridinepropionate]",> 90 µM
21,CC1CCCCC1NC(=O)Nc1ccccc1 (stereo not drawn) [Siduron],> 90 µM
22,Clc1ccc(C(OCCN2CCCCC2)c2ccccc2)cc1 (stereo not drawn) [Cloperastine hydrochloride],9.53 µM
23,OC[C@H]1O[C@@H](n2cnc3c(S)ncnc32)[C@H](O)[C@@H]1O [Thioinosine],> 50 µM
24,CC[C@@]1(O)C(=O)OCc2c1cc1n(c2=O)Cc2cc3c([N+](=O)[O-])cccc3nc2-1 [Rubitecan],1.34 µM
25,"CC(Cl)=CCCl [1,3-Dichloro-2-butene]",> 90 µM
26,Cc1c(N(C)C)c(=O)n(-c2ccccc2)n1C [4-Dimethylaminoantipyrine],> 50 µM

row,SMILES,CC50 at 24 h
1,NC=O [Formamide],> 100 µM
2,FC(F)(F)C(F)(F)C(F)(F)C(F)(F)C(F)(F)C(F)(F)C(F)(F)C(F)(F)Br [1-Bromoheptadecafluorooctane],> 50 µM
3,CCN(CC)c1ccc(C(=C2C=CC(=[N+](CC)CC)C=C2)c2ccccc2)cc1 [Brilliant Green],0.384 µM
4,CCCCC(CC)C(=O)Cl (stereo not drawn) [2-Ethylhexanoyl chloride],> 90 µM
5,COc1cc(OC)nc(Sc2cccc(Cl)c2C(=O)O)n1 [Pyrithiobac-sodium],> 90 µM
6,C#CC(C)(C)NC(=O)c1cc(Cl)cc(Cl)c1 [Propyzamide],> 90 µM
7,"CC(=O)OCCOC(C)=O [1,2-Ethanediol diacetate]",> 90 µM
8,O=C(O)COCC(=O)O [Diglycolic acid],> 90 µM
9,"Cc1ccccc1NC(=N)Nc1ccccc1C [1,3-Bis(2-methylphenyl)guanidine]",> 90 µM
10,CC(C)OC(=O)c1ccccc1 [Propan-2-yl benzoate],> 100 µM
11,CCC(=O)O[C@]1(C(=O)SCF)[C@H](C)C[C@H]2[C@@H]3C[C@H](F)C4=CC(=O)C=C[C@]4(C)[C@@]3(F)[C@@H](O)C[C@@]21C [Fluticasone propionate],> 20 µM
12,O=C1OC(OC(=O)c2cccnc2Nc2cccc(C(F)(F)F)c2)c2ccccc21 (stereo not drawn) [Talniflumate],> 50 µM
13,OCCc1ccccn1 [2-(Pyridin-2-yl)ethanol],> 90 µM
14,C=CC(=O)OCC[N+](C)(C)C [2-(Dimethylamino)ethyl acrylate methochloride],> 90 µM
15,CC(C)C1(C)N=C(c2ncccc2C(=O)O)NC1=O (stereo not drawn) [Imazapyr],> 90 µM
16,CCOC(=O)CCC(C)=O [Ethyl levulinate],> 90 µM
17,C[C@H]1[C@H](O)O[C@@H]2O[C@@]3(C)CC[C@H]4[C@H](C)CC[C@@H]1[C@@]24OO3 [Artenimol],1.39 µM
18,"COC(=O)c1ccc2cc(C(=O)OC)ccc2c1 [Dimethyl 2,6-naphthalenedicarboxylate]",> 20 µM
19,[H]/N=C(/N)NS(=O)(=O)c1ccc(N)cc1 [Sulfaguanidine],> 20 µM
20,CCCC(=O)Nc1ccc(OCC(O)CNC(C)C)c(C(C)=O)c1 (stereo not drawn) [Acebutolol hydrochloride],> 20 µM
21,c1ccc(C2(c3ccccc3)CC2C2=NCCN2)cc1 (stereo not drawn) [Cifenline succinate],> 50 µM
22,C/C=C/c1ccc(OC)cc1 [Anethole],> 90 µM
23,Cc1ccc2cccnc2c1 [7-Methylquinoline],> 90 µM
24,"C=CCCC=C [1,5-Hexadiene]",> 90 µM
25,CCCCCCO [1-Hexanol],> 90 µM

# Same assay, conditions: rat, gh3-tre-luc cells, AC50 (uM) modified / 1000, Tox21_110001=Tox21_111095; viability, 1 nM T3 present, 24 h
row,SMILES,CC50 at 24 h
1,Nc1ccccc1C(=O)O [Anthranilic acid],> 50 µM

# Same assay, conditions: rat, gh3-tre-luc cells, AC50 (uM) modified / 1000, Tox21_110001=Tox21_112614; viability, 1 nM T3 present, 24 h
row,SMILES,CC50 at 24 h
1,C=CCN1CC[C@]23c4c5ccc(O)c4O[C@H]2[C@@H](O)C=C[C@H]3[C@H]1C5 [Nalorphine hydrochloride],> 50 µM

# Same assay, conditions: rat, gh3-tre-luc cells, AC50 (uM) modified / 1000, Tox21_110001=Tox21_112620; viability, 1 nM T3 present, 24 h
row,SMILES,CC50 at 24 h
1,CCC(=O)O[C@]1(c2ccccc2)CCN(C)C[C@H]1C [Betaprodine],> 50 µM

# Same assay, conditions: rat, gh3-tre-luc cells, AC50 (uM) modified / 1000, Tox21_110001=Tox21_112824; viability, 1 nM T3 present, 24 h
row,SMILES,CC50 at 24 h
1,COc1ccc2c3c1O[C@H]1[C@@H](O)C=C[C@H]4[C@@H](C2)NCC[C@@]341 [N-Norcodeine hydrochloride],> 100 µM

# Same assay, conditions: rat, gh3-tre-luc cells, AC50 (uM) modified / 1000, Tox21_110001=Tox21_200703; viability, 1 nM T3 present, 24 h
row,SMILES,CC50 at 24 h
1,Nc1ccccc1C(=O)O [Anthranilic acid],> 90 µM

# Same assay, conditions: rat, gh3-tre-luc cells, AC50 (uM) modified / 1000, Tox21_110001=Tox21_300616; viability, 1 nM T3 present, 24 h
row,SMILES,CC50 at 24 h
1,O=C(O)C(F)(F)C(F)(F)C(F)(F)C(F)(F)C(F)(F)C(F)(F)F [Perfluoroheptanoic acid],> 90 µM

# Same assay, conditions: rat, gh3-tre-luc cells, AC50 (uM) modified / 1000, Tox21_110001=Tox21_300689; viability, 1 nM T3 present, 24 h
row,SMILES,CC50 at 24 h
1,O=C(Cc1ccccc1)OCCc1ccccc1 [2-Phenylethyl phenylacetate],> 90 µM
